Results published in ChEMBL document CHEMBL5543145, “Discovery of the First-in-Class G9a/GLP PROTAC Degrader” (J Med Chem, 2024).
Calls of active or inactive are those of the source. The calls are words filed in the database; no cut-off is given here.

How the values were obtained:
PNT2 = test: Cytotoxicity against human PNT2 cells assessed as growth inhibition measured for 5 days; assay type: toxicity, cell-based; settings: pnt2, 120 h, time 5 day
CWR22R [1] = test: Effect on PRMT7 level in human 22Rv1 cells at 3 uM incubated for 24 hrs by Western blot analysis; assay type: functional, cell-based
[2] = target: T1, von Hippel-Lindau disease tumor suppressor/Histone-lysine N-methyltransferase EHMT2 (Homo sapiens, UniProt Q96KQ7+P40337); test: PROTAC activity at G9a/VHL in human NCI-H1299 cells assessed as induction of G9a degradation at 3 uM incubated for 24 hrs by Western blot analysis; assay type: cell-based
Target sequence in this assay (P40337 whole entry partner): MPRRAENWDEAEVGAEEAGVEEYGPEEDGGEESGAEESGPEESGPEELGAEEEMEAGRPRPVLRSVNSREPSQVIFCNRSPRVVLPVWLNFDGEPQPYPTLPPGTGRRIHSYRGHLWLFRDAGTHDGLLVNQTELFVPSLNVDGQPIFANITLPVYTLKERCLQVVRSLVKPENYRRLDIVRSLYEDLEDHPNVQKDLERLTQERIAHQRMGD
Target sequence in this assay (Q96KQ7 2-1210 limits assumed): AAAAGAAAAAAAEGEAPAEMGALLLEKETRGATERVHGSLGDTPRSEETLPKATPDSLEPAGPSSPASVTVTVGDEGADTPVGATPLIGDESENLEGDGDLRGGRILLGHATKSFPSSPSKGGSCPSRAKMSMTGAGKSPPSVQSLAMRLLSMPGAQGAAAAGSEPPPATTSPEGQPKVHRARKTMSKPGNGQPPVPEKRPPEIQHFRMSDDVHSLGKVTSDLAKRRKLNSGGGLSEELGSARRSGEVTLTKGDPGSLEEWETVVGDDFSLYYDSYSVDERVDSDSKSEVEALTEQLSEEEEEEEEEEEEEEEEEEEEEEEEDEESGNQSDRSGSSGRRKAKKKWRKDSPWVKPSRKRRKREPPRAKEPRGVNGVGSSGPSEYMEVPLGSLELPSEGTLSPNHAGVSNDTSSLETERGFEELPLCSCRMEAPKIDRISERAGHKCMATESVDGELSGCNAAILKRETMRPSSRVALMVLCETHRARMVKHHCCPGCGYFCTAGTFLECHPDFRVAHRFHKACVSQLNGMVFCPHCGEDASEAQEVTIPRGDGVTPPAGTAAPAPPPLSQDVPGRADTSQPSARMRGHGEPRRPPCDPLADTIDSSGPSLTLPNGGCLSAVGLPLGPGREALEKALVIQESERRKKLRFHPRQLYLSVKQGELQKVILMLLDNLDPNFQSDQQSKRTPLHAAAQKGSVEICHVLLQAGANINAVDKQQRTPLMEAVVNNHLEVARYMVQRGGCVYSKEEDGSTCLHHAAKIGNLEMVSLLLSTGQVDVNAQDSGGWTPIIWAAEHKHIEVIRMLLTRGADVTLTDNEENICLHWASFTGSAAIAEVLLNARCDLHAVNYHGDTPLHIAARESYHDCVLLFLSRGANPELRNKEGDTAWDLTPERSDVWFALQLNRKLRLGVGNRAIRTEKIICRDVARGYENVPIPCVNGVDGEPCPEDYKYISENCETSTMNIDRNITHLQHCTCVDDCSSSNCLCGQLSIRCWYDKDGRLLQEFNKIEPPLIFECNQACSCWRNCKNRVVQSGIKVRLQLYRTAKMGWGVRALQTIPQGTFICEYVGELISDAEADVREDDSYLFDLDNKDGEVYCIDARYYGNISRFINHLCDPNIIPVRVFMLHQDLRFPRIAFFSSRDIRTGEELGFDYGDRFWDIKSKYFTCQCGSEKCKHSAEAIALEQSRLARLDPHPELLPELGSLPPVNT

[3] = target: Histone-lysine N-methyltransferase 2A (Homo sapiens) (UniProt Q03164); test: Inhibition of MLL1 (unknown origin) at 10 uM relative to control
CWR22R [4] = test: Effect on EZH2 level in human 22Rv1 cells at 3 uM incubated for 24 hrs by Western blot analysis; assay type: functional, cell-based
[5] = target: T1, von Hippel-Lindau disease tumor suppressor/Histone-lysine N-methyltransferase EHMT2; test: PROTAC activity at G9a/VHL in human 22Rv1 cells assessed as induction of G9a degradation at 0.3 uM incubated for 24 hrs by Western blot analysis relative to control; assay type: cell-based
Target sequence in this assay (P40337 whole entry partner): as the sequence (P40337 whole entry partner) above
Target sequence in this assay (Q96KQ7 2-1210 limits assumed): as the sequence (Q96KQ7 2-1210 limits assumed) above

[6] = target: T1, von Hippel-Lindau disease tumor suppressor/Histone-lysine N-methyltransferase EHMT2; test: PROTAC activity at G9a/VHL in human 22Rv1 cells assessed as induction of G9a degradation incubated for 24 hrs by Western blot analysis; assay type: cell-based
Target sequence in this assay (Q96KQ7 whole entry): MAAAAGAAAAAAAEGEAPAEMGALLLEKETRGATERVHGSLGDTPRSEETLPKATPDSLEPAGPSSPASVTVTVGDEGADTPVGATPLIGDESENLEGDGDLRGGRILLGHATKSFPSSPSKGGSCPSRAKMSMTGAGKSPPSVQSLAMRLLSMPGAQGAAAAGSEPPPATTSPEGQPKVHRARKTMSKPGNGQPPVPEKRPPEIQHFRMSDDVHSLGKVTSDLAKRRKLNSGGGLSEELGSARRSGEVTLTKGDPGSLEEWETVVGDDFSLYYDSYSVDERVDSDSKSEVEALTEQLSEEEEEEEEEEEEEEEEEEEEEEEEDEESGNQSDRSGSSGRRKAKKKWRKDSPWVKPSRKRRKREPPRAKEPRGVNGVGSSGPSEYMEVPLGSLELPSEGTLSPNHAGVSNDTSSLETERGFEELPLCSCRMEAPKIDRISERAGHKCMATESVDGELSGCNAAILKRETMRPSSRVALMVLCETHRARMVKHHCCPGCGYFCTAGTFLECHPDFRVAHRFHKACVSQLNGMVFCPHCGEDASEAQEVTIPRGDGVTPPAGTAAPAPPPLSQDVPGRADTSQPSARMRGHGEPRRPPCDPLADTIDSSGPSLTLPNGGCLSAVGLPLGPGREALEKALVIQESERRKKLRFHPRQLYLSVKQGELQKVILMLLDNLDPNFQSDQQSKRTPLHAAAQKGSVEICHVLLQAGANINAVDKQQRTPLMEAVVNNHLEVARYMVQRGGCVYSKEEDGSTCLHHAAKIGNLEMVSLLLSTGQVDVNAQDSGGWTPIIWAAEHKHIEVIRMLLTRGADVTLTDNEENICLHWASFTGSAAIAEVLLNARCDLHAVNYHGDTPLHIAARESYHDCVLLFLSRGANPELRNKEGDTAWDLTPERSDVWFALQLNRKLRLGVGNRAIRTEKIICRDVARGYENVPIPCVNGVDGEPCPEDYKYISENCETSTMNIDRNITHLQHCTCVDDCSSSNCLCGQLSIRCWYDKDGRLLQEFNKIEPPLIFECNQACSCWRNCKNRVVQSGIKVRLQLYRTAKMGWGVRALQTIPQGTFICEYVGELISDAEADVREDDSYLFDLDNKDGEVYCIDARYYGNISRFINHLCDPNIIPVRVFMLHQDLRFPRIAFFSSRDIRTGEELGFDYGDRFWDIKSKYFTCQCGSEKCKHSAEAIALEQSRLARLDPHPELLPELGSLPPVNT
Target sequence in this assay (P40337 whole entry): as the sequence (P40337 whole entry partner) above

[7] = target: Histone-lysine N-methyltransferase SETD2 (Homo sapiens) (UniProt Q9BYW2); test: Inhibition of SETD2 (unknown origin) at 10 uM relative to control
[8] = Cmax in C57BL6 mouse plasma at 50 mg/kg, ip measured at 0.5 hrs by LC-MS/MS analysis; assay type: ADME, organism-based
[9] = target: T1, von Hippel-Lindau disease tumor suppressor/Histone-lysine N-methyltransferase EHMT2; test: PROTAC activity at G9a/VHL in human 22Rv1 cells assessed as induction of G9a degradation at 3 uM measured at 4 hrs by Western blot analysis; assay type: cell-based
Target sequence in this assay (P40337 whole entry partner): as above
Target sequence in this assay (Q96KQ7 2-1210 limits assumed): as the sequence (Q96KQ7 2-1210 limits assumed) above

[10] = target: Protein arginine N-methyltransferase 1 (Homo sapiens) (UniProt Q99873); test: Inhibition of PRMT1 (unknown origin) at 10 uM relative to control
[11] = target: von Hippel-Lindau disease tumor suppressor/Histone-lysine N-methyltransferase EHMT1 (Homo sapiens, UniProt Q9H9B1+P40337); test: PROTAC activity at GLP/VHL in human 22Rv1 cells assessed as induction of GLP degradation at 1 uM pretreated with VHL-1 for 2 hrs followed by compound administration and measured after 24 hrs by Western blot analysis; assay type: cell-based
Homo sapiens = species on record: Homo sapiens; test: Inhibition of SET6 (unknown origin) at 10 uM relative to control
[12] = target: Histone-lysine N-methyltransferase SUV39H2 (Homo sapiens) (UniProt Q9H5I1); test: Inhibition of SUV39H2 (unknown origin) at 10 uM relative to control
CWR22R [13] = test: Effect on SET7/9 level in human 22Rv1 cells at 3 uM incubated for 24 hrs by Western blot analysis; assay type: functional, cell-based
K562 = test: Cytotoxicity against human K562 cells assessed as growth inhibition incubated for 7 days; assay type: functional; settings: K562, 168 h, time 7 day
[14] = target: Histone-lysine N-methyltransferase NSD2 (Homo sapiens) (UniProt O96028); test: Inhibition of NSD2 (unknown origin) at 10 uM relative to control
[15] = target: Histone-lysine N-methyltransferase NSD3 (Homo sapiens) (UniProt Q9BZ95); test: Inhibition of NSD3 (unknown origin) at 10 uM relative to control
[16] = target: Protein arginine N-methyltransferase 8 (Homo sapiens) (UniProt Q9NR22); test: Inhibition of PRMT8 (unknown origin) at 10 uM relative to control
[17] = target: T1, von Hippel-Lindau disease tumor suppressor/Histone-lysine N-methyltransferase EHMT2; test: PROTAC activity at G9a/VHL in human 22Rv1 cells assessed as induction of G9a degradation at 3 uM measured at 24 to 48 hrs by Western blot analysis; assay type: cell-based; settings: time 24-48 hrs
Target sequence in this assay (P40337 whole entry partner): as the sequence (P40337 whole entry partner) above
Target sequence in this assay (Q96KQ7 2-1210 limits assumed): as the sequence (Q96KQ7 2-1210 limits assumed) above

von Hippel-Lindau disease tumor suppressor/Histone-lysine N-methyltransferase EHMT1, sequence (P40337 whole entry partner): as the sequence (P40337 whole entry partner) above
von Hippel-Lindau disease tumor suppressor/Histone-lysine N-methyltransferase EHMT1, sequence (Q9H9B1 2-1298 limits assumed): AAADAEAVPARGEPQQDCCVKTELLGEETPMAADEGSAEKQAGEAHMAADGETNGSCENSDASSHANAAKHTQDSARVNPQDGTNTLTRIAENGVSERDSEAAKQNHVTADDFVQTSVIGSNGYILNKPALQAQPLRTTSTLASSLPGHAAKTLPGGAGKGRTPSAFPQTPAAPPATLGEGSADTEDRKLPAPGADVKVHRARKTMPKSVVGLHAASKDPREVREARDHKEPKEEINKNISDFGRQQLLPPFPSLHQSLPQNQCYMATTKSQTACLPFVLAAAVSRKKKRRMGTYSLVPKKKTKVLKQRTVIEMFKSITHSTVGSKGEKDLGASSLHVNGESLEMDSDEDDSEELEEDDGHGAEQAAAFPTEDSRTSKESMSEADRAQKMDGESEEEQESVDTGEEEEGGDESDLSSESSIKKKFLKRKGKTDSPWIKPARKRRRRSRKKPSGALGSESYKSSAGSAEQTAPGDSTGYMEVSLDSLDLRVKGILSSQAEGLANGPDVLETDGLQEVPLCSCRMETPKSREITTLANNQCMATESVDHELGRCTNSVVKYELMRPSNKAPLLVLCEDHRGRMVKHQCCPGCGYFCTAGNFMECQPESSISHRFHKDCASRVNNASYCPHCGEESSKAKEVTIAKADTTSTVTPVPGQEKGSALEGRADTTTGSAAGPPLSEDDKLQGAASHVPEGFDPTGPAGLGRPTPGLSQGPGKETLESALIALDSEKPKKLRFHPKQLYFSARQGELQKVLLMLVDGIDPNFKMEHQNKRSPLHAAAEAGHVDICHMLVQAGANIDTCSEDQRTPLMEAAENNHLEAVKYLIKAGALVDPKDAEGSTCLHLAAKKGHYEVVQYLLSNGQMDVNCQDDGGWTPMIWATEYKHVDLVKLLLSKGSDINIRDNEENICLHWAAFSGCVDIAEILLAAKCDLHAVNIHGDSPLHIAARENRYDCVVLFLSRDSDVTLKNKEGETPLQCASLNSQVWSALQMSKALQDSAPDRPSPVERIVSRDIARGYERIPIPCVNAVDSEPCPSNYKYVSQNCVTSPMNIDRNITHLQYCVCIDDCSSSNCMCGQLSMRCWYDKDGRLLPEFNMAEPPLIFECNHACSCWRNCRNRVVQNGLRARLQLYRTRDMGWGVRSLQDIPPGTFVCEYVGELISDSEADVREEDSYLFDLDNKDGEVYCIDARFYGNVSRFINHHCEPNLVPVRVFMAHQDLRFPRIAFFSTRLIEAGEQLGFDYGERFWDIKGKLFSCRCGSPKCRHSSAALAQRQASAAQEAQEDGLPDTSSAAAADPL
Histone-lysine N-methyltransferase SUV39H2 (Homo sapiens), sequence (Q9H5I1 whole entry): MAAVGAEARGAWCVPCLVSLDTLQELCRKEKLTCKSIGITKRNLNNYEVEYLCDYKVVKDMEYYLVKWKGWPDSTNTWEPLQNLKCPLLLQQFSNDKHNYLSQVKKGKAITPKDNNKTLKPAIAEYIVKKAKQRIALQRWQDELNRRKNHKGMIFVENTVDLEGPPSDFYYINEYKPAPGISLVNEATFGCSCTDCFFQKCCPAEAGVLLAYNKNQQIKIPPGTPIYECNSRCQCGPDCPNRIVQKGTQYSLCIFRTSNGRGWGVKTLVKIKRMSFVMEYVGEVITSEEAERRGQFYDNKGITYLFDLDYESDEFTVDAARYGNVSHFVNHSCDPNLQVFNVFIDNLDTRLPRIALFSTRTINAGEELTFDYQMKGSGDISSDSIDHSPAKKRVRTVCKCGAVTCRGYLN

- Activity [2]: Active
- inhibition [3]: > 50%
- Emax [5]: 73%
- DC50 [6]: 0.274 µM
- inhibition [7]: > 50%
- Cmax [8]: 27 µM
- Activity [9]: Active
- inhibition [10]: > 50%
- Activity [11]: Active
- inhibition (Homo sapiens): > 50%
- inhibition [12]: > 50%
- inhibition [14]: > 50%
- inhibition [15]: > 50%
- inhibition [16]: > 50%
- Activity [17]: 100%
Compound: COc1cc2c(NC3CCN(CCCC(=O)NCCCCCCCCCCCC(=O)N[C@H](C(=O)N4C[C@H](O)C[C@H]4C(=O)NCc4ccc(-c5scnc5C)cc4)C(C)(C)C)CC3)nc(N3CCC(F)(F)CC3)nc2cc1OCCCN1CCCC1
- Activity (PNT2): Non-Toxic
- Activity (CWR22R [1]): Active
- Activity (CWR22R [4]): Active
- Activity (CWR22R [13]): Active
- GI50 (K562): 2 µM
